Assay results as given in patent US8962018B2, “Oral formulation of anhydrous olanzapine form I” (Laboratorios Lesvi, S.L., priority 2005, dated 2015).

What was measured:
Format in all cases: physicochemical
[1] = X-ray diffraction study of polymorphic form after direct compression; settings: after direct compression into tablets
[2] = Stability of olanzapine Form I product under ambient storage conditions
Procedure: Said method includes in vacuo drying of the solvate at a pressure ranging between 1 and 40 mmHg, preferably between 1 and 20 mmHg, and a temperature controlled between 10 and 50° C., preferably between 20 and 40° C. Said method provides olanzapine Form I in a simple manner, with a high yield of the end product (olanzapine Form I) and with high chemical purity (level of total impurities less than 0.3% as determined by HPLC), together with a high polymorphic purity (Form II<2%).

[3] = Effect of aqueous medium used for the coating on stability of the solid form; settings: aqueous medium used for preparation of the coating

## Cc1cc2c(s1)Nc1ccccc1N=C2N1CCN(C)CC1 [olanzapine Form I, Olanzapine]
[1]
  Polymorphic form stability (formation of Form II): remains stable without any formation of detectable amounts of the polymorph Form II being observed
[2]
  Stability and colour variations: remains stable and does not undergo colour variations
[3]
  Related substances and polymorphic form after aqueous coating: no increase of related substances nor change in the polymorphic form
